Reference: patent US11180462B2, “Microbiocidal oxadiazole derivatives” (SYNGENTA PARTICIPATIONS AG, priority 2015, dated 2021)

How the values were obtained:
Phakopsora Pachyrhizi = test: Fungicidal activity against Phakopsora pachyrhizi / soybean / leaf disc preventative (Asian soybean rust); assay type: in vivo; details: foliar, 200 ppm in the applied formulation, soybean leaf disks, compared to untreated control leaf disks, read-out: disease control
Description: Leaf disks or leaf segments of various plant species are cut from plants grown in a greenhouse. The cut leaf disks or segments are placed in multiwell plates (24-well format) onto water agar. The leaf disks are sprayed with a test solution before (preventative) or after (curative) inoculation. Compounds to be tested are prepared as DMSO solutions (max. 10 mg/ml) which are diluted to the appropriate concentration with 0.025% Tween20 just before spraying. The inoculated leaf disks or segments are incubated under defined conditions (temperature, relative humidity, light, etc.) according to the respective test system. A single evaluation of disease level is carried out 3 to 14 days after inoculation, depending on the pathosystem. Percent disease control relative to the untreated check leaf disks or segments is then calculated.
Fungicidal Activity Against Phakopsora Pachyrhizi Soybean/Leaf Disc Preventative (Asian Soybean Rust)
Soybean leaf disks are placed on water agar in multiwell plates (24-well format) and sprayed with the formulated test compound diluted in water. One day after application leaf discs are inoculated by spraying a spore suspension on the lower leaf surface. After an incubation period in a climate cabinet of 24-36 hours in darkness at 20° C. and 75% rh leaf disc are kept at 20° C. with 12 h light/day and 75% rh. The activity of a compound is assessed as percent disease control compared to untreated when an appropriate level of disease damage appears in untreated check leaf disks (12 to 14 days after application).
The following compounds at 200 ppm in the applied formulation give at least 80% disease control in this test when compared to untreated control leaf disks under the same conditions, which show extensive disease development.

[1] = tested on: Glomerella lagenarium (Colletotrichum lagenarium); test: Fungicidal activity against Glomerella lagenarium (Colletotrichum lagenarium) liquid culture / cucumber / preventative (anthracnose); assay type: cell-based; details: Colletotrichum orbiculare; 20 ppm in the applied formulation; liquid culture (PDB), growth inhibition measured photometrically after 3 to 4 days; compared to untreated control; read-out: disease control
Summary of the method: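 Percent activity against the untreated check was derived from photometric growth measurements made 2 to 7 days after conidia in potato dextrose broth were combined with compound at 20 ppm. Cultures were kept dark at 24 °C and 96% humidity.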

SMILES | pest or weed control at 200 ppm (Phakopsora Pachyrhizi) [%] | inhibition of growth at 20 ppm [1] [%]
CC(C)(C)CC(=O)N(Cc1ccc(-c2noc(C(F)(F)F)n2)cc1)CC1CC1 [Compound 1.224, N-(cyclopropylmethyl)-3,3-dimethyl-N-[[4-[5-(trifluoromethyl)-1,2,4-oxadiazol-3-yl]phenyl]methyl]-butanamide] | ≥ 80 | ≥ 80
C#CCN(Cc1ccc(-c2noc(C(F)(F)F)n2)cc1)C(=O)C1CC1c1ccccc1 (centres unmarked) [Compound 1.166, 2-phenyl-N-prop-2-ynyl-N-[[4-[5-(trifluoromethyl)-1,2,4-oxadiazol-3-yl]phenyl]methyl]-cyclopropane-carboxamide] | ≥ 80 | ≥ 80
CCON(Cc1ccc(-c2noc(C(F)(F)F)n2)cc1)C(=O)CC(F)(F)F [Compound 1.630, N-ethoxy-3,3,3-trifluoro-N-[[4-[5-(trifluoromethyl)-1,2,4-oxadiazol-3-yl]phenyl]methyl]-propanamide] | ≥ 80 | ≥ 80
CCCCON(Cc1ccc(-c2noc(C(F)(F)F)n2)cc1)C(=O)CC#N [Compound 1.645, N-butoxy-2-cyano-N-[[4-[5-(trifluoromethyl)-1,2,4-oxadiazol-3-yl]phenyl]methyl]-acetamide] | ≥ 80 | ≥ 80
CCC(CC(=O)N(Cc1ccc(-c2noc(C(F)(F)F)n2)cc1)OC)C(F)(F)F (centres unmarked) [Compound 1.82, N-methoxy-3-(trifluoromethyl)-N-[[4-[5-(trifluoromethyl)-1,2,4-oxadiazol-3-yl]phenyl]methyl]-pentamide] | ≥ 80 | ≥ 80
CCCCON(Cc1ccc(-c2noc(C(F)(F)F)n2)cc1)C(=O)C(CC)COC (centres unmarked) [Compound 1.642, N-butoxy-2-(methoxymethyl)-N-[[4-[5-(trifluoromethyl)-1,2,4-oxadiazol-3-yl]phenyl]methyl]-butanamide] | ≥ 80 | ≥ 80
CCCCON(Cc1ccc(-c2noc(C(F)(F)F)n2)cc1)C(=O)C1CC1(F)F (centres unmarked) [Compound 1.634, N-butoxy-2,2-difluoro-N-[[4-[5-(trifluoromethyl)-1,2,4-oxadiazol-3-yl]phenyl]methyl]-cyclopropane-carboxamide] | ≥ 80 | ≥ 80
O=C(CC(F)(F)F)N(Cc1ccc(-c2noc(C(F)(F)F)n2)cc1)CC1CC1 [Compound 1.220, N-(cyclopropylmethyl)-3,3,3-trifluoro-N-[[4-[5-(trifluoromethyl)-1,2,4-oxadiazol-3-yl]phenyl]methyl]-propanamide] | ≥ 80 | ≥ 80
CCCCON(Cc1ccc(-c2noc(C(F)(F)F)n2)cc1)C(=O)C1(C)COC1 [Compound 1.641, N-butoxy-3-methyl-N-[[4-[5-(trifluoromethyl)-1,2,4-oxadiazol-3-yl]phenyl]methyl]-oxetane-3-carboxamide] | ≥ 80 | ≥ 80
CCCN(Cc1ccc(-c2noc(C(F)(F)F)n2)cc1)C(=O)c1ccccc1Cl [Compound 1.653, 2-chloro-N-propyl-N-[[4-[5-(trifiuoromethyl)-1,2,4-oxadiazol-3-yl]phenyl]methyl]-benzamide] | ≥ 80 | ≥ 80
CCCCON(Cc1ccc(-c2noc(C(F)(F)F)n2)cc1)C(=O)CCOC [Compound 1.637, N-butoxy-3-methoxy-N-[[4-[5-(trifluoromethyl)-1,2,4-oxadiazol-3-yl]phenyl]methyl]-propanamide] | ≥ 80 | ≥ 80
COCCCC(=O)N(Cc1ccc(-c2noc(C(F)(F)F)n2)cc1)CC(F)(F)F [Compound 1.700, 4-methoxy-N-(2,2,2-trifluoroethyl)-N-[[4-[5-(trifluoromethyl)-1,2,4-oxadiazol-3-yl]phenyl]methyl]-butanamide] | ≥ 80 | ≥ 80
O=C(CC1CC1)N(Cc1ccc(-c2noc(C(F)(F)F)n2)cc1)CC(F)(F)F [Compound 1.706, 2-cyclopropyl-N-(2,2,2-trifluoroethyl)-N-[[4-[5-(trifluoromethyl)-1,2,4-oxadiazol-3-yl]phenyl]methyl]-acetamide] | ≥ 80 | ≥ 80
CC1CC1C(=O)N(Cc1ccc(-c2noc(C(F)(F)F)n2)cc1)CC(F)(F)F (centres unmarked) [Compound 1.695, 2-methyl-N-(2,2,2-trifluoroethyl)-N-[[4-[5-(trifluoromethyl)-1,2,4-oxadiazol-3-yl]phenyl]methyl]-cyclopropane-carboxamide] | ≥ 80 | ≥ 80
CCCCON(Cc1ccc(-c2noc(C(F)(F)F)n2)cc1)C(=O)C1CCCO1 (centres unmarked) [Compound 1.644, N-butoxy-N-[[4-[5-(trifluoromethyl)-1,2,4-oxadiazol-3-yl]phenyl]methyl]-tetrahydrofuran-2-carboxamide] | ≥ 80 | ≥ 80
CCCCON(Cc1ccc(-c2noc(C(F)(F)F)n2)cc1)C(=O)CC(F)(F)F [Compound 1.648, N-butoxy-3,3,3-trifluoro-N-[[4-[5-(trifluoromethyl)-1,2,4-oxadiazol-3-yl]phenyl]methyl]-propanamide] | ≥ 80 | ≥ 80
CCON(Cc1ccc(-c2noc(C(F)(F)F)n2)cc1)C(=O)c1ccccc1Cl [Compound 1.616, 2-chloro-N-ethoxy-N-[[4-[5-(trifluoromethyl)-1,2,4-oxadiazol-3-yl]phenyl]methyl]-benzamide] | ≥ 80 | ≥ 80
CCC(COC)C(=O)N(Cc1ccc(-c2noc(C(F)(F)F)n2)cc1)CC(F)(F)F (centres unmarked) [Compound 1.699, 2-(methoxymethyl)-N-(2,2,2-trifluoroethyl)-N-[[4-[5-(trifluoromethyl)-1,2,4-oxadiazol-3-yl]phenyl]methyl]-butanamide] | ≥ 80 | ≥ 80
CCCCON(Cc1ccc(-c2noc(C(F)(F)F)n2)cc1)C(C)=O [Compound 1.649, N-butoxy-N-[[4-[5-(trifluoromethyl)-1,2,4-oxadiazol-3-yl]phenyl]methyl]-acetamide] | ≥ 80 | ≥ 80
CCC(C)(CC)C(=O)N(Cc1ccc(-c2noc(C(F)(F)F)n2)cc1)OC [Compound 1.58, 2-ethyl-N-methoxy-2-methyl-N-[[4-[5-(trifluoromethyl)-1,2,4-oxadiazol-3-yl]phenyl]methyl]-butanamide] | ≥ 80 | ≥ 80
O=C(c1ccccc1Cl)N(Cc1ccc(-c2noc(C(F)(F)F)n2)cc1)CC(F)(F)F [Compound 1.691, 2-chloro-N-(2,2,2-trifluoroethyl)-N-[[4-[5-(trifluoromethyl)-1,2,4-oxadiazol-3-yl]phenyl]methyl]-benzamide] | ≥ 80 | ≥ 80
CCC(C)C(=O)N(Cc1ccc(-c2noc(C(F)(F)F)n2)cc1)CC(F)(F)F (centres unmarked) [Compound 1.697, 2-methyl-N-(2,2,2-trifluoroethyl)-N-[[4-[5-(trifluoromethyl)-1,2,4-oxadiazol-3-yl]phenyl]methyl]-butanamide] | ≥ 80 | ≥ 80
